# Results from PubChem BioAssay AID493130 (Broad Institute, 2011).
# Records with an inconclusive call do not appear. Active and inactive are the calls of the source.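 How the source made its calls: active means signal-lowering compounds whose fitted half-maximal concentration is at most ten times their highest tested dose; inconclusive means flat fit between -30 and -70%, or poor fit; inactive means flat within 30%, signal rising, or potency beyond limit.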
# Biological target: POS-1 (Caenorhabditis elegans) binding to mex-3 RNA
# Experiment: inhibitors of POS-1/mex-3 RNA binding, dose response, counter-screen for MEX-5 RNA-binding inhibitor project, biochemical, fluorescence polarization, cherry-picked samples, set 2 (AID 493130);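 further: POS-1 as maltose binding protein fusion made in E. coli with FITC RNA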
# Conditions: POS-1/mex-3 RNA fluorescence polarization, 1 h; for activity change, negative = inhibition: at 10 µM (top of the series)
Structure (SMILES),"activity change, negative = inhibition",AC50
CC1=NN2C(=N)/C(=C\c3ccc(SCc4ccccc4)o3)C(=O)N=C2S1,inactive,
Cc1cccc(C(=O)NNc2ncnc3c2cnn3C)c1,inactive,
CC(=O)Nc1ccc(S(=O)(=O)NNC(=O)C(=O)NNc2ccccn2)cc1,,> 10 µM (inactive)
O=C(O)c1ccc2cccnc2n1,inactive,
Oc1ccc(/C=N/Nc2ccc(Cl)nn2)c(O)c1O,inactive,
O=C(Nc1ccc(OCc2ccccc2)cc1)Nc1cccnc1,inactive,
Cc1csc(NC(=O)c2ccc(-c3ccc(Cl)cc3Cl)o2)n1,inactive,
O=C(NNc1ccccc1)C(=O)NNS(=O)(=O)c1ccc(CCCl)cc1,inactive,
O=c1c(OC2OC(CO)C(O)C(O)C2O)c(-c2ccc(O)c(O)c2)oc2cc(O)cc(O)c12 (centres undefined),inactive,
O=C(O[C@@H]1OC2COC(=O)c3cc(O)c(O)c(O)c3-c3c(cc(O)c(O)c3O)C(=O)O[C@@H]([C@H]1O)[C@@H]2O)c1cc(O)c(O)c(O)c1,,2.27 µM
Cc1cc(-c2csc(N)n2)c(C)n1C,,8.77 µM
Cc1c(Br)c(=O)oc2c(Br)c(O)c(O)cc12,inactive,
CCCCn1c(N)c(N(Cc2ccccc2OC)C(=O)C(C)C)c(=O)[nH]c1=O,inactive,
Cc1cc(/C=C2\SC(=S)N(Cc3ccco3)C2=O)c(C)n1-c1ccccc1,inactive,
O=C1C(Cl)=C(NC2CCCCC2)C(=O)N1c1ccc(Cl)cc1,inactive,
CCC(=O)NCCc1nc2ccccc2n1Cc1ccccc1,inactive,
Cn1c(=O)n(C)c2cc(/C=N/N=C3/NC(=O)C(CC(=O)O)S3)ccc21 (centres undefined),inactive,
COC(=O)COc1ccc(C2Nc3c(Cl)ccc(C(=O)O)c3C3C=CCC32)cc1 (centres undefined),inactive,
COc1ccc2nc3ccccc3nc2c1NC(=O)c1ccc(Cl)cc1,inactive,
COc1ccc(/C(O)=C/c2nc3ccccc3n(-c3ccccc3)c2=O)cc1,,3.23 µM
Cc1c(C=O)c(Cl)n(C)c(=O)c1C#N,inactive,
CS(=O)(=O)/C(C#N)=C/c1c(-c2ccccc2)nc2n1CCS2,inactive,
CC(C)C(=O)OCC(=O)Nc1ccc2c(c1)CCC2,inactive,
FC(F)(F)c1ccc(Cl)c(-n2c(-c3cc(-c4ccco4)[nH]n3)n[nH]c2=S)c1,inactive,

Structure (SMILES),"activity change, negative = inhibition",AC50
COC(=O)c1cc(O)c(O)c(O)c1,inactive,
Cc1nnc(-c2cccc(Br)c2)c2cn(-c3cccc(Br)c3)nc12,inactive,
Cc1cc(-c2nnc(SCC(=O)Nc3nccs3)o2)no1,inactive,
COc1ccc(/C=C2\SC(=S)N(CCCC(=O)Nc3ccccn3)C2=O)cc1OC,inactive,
COc1ccc(OC)c(/C=C/C(=O)Nc2ccc(OC)nc2)c1,inactive,
O=C1c2cccc3c(Cl)ccc(c23)C(=O)N1O,inactive,
CCC(=O)Oc1ccc2c(c1)O/C(=C\c1ccco1)C2=O,,5.63 µM
Cc1nc2ccc(NC(=O)NC(=O)c3c(Cl)cccc3Cl)cc2o1,inactive,
COc1ccc(N=Nc2c(C)[nH][nH]c2=O)cc1,inactive,
O=C(N/N=C/c1c(O)n(Cc2ccccc2)c(=O)[nH]c1=O)c1ccccc1O,,4.84 µM
COc1ccc(N=C2S/C(=C\c3cc(C)n(C)c3C)C(=O)N2C)cc1,inactive,
N#CC1=C(N)Oc2c(O)cc3ccccc3c2C1c1ccsc1 (centres undefined),inactive,
CN(C)c1ccc2nc3c(=O)[nH]c(=O)nc-3n(CC(O)C(O)C(O)CO)c2c1 (centres undefined),,9.63 µM
COc1ccccc1N1C(=O)S/C(=C\c2cccs2)C1=O,inactive,
Cc1ccc([C@@H]2C3COCC=C3C(C#N)=C(N)C2(C#N)C#N)o1 (some centres undefined),inactive,
N=c1c(S(=O)(=O)c2ccc(Cl)cc2)cc2c(=O)n3ccccc3nc2n1CC1CCCO1 (centres undefined),inactive,
O=C(Cc1cccs1)Nc1nnc(SCc2ccc(Br)cc2)s1,inactive,
Cc1cc(C(=O)N/N=C/c2ccc(-c3ccc([N+](=O)[O-])cc3C)o2)n[nH]1,inactive,
CCOC(=O)CCCc1sc(N)nc1-c1[nH]c(=O)[nH]c1C,inactive,
CCCCn1c(N)c(N(CCOC)C(=O)c2ccc(Br)o2)c(=O)[nH]c1=O,inactive,
Cc1cc(C(=O)N/N=C/c2ccc(-c3ccc(C)c(Cl)c3)o2)n[nH]1,inactive,
CCOc1ccccc1C1NC(=O)NC(C)=C1C(=O)OCc1ccccc1 (centres undefined),inactive,
COc1cccc(NCc2cc(=O)oc3cc(C)c(O)cc23)c1,inactive,
Cc1cccc(CS(=O)(=O)c2nnc([C@H](Cc3ccccc3)NC(=O)OC(C)(C)C)o2)c1,inactive,

Structure (SMILES),"activity change, negative = inhibition",AC50
CN(N=Nc1ccc([N+](=O)[O-])cc1)c1ccccc1,inactive,
O=C(O)c1ccc2cccnc2c1O,inactive,
CC(C)CN1CCN(Cc2cccc3ncccc23)CC1CCO (centres undefined),inactive,
COc1ccccc1OCC(=O)NNC(=O)c1cnccn1,inactive,
COC(=O)c1cc2c(-c3ccccc3)c(C)c3ccccn3c-2c1C(=O)OC,,> 10 µM (inactive)
CN(C)C1C(=O)C(C(N)=O)=C(O)C2(O)C(=O)C3=C(O)c4c(O)cccc4C(C)(O)C3CC12 (centres undefined),inactive,
COc1ccccc1CN1CC(C(=O)NCCN(C)CCc2ccccc2)CCC1=O (centres undefined),inactive,
Cn1c(=O)c2[nH]c(-c3ccccc3)c(O)c2n(C)c1=O,,2.27 µM
Cc1nc2nc(-c3ccc(Cl)cc3)cn2nc1C,inactive,
O=C(O)c1[nH]c2ccccc2c1C(c1cc(Br)ccc1O)c1c(C(=O)O)[nH]c2ccccc12,inactive,
COc1ccc(OC)c(Nc2nc(-c3ccc(O)c(O)c3)cs2)c1,inactive,
O=C(Nc1ccc(S(=O)(=O)Nc2nccs2)cc1)c1ccc(N2C(=O)c3ccccc3C2=O)cc1,inactive,
Cc1cccnc1Nc1nc(-c2ccc(O)cc2O)cs1,inactive,
Cn1c(O)c(/C=N/NC(=O)c2cc3ccccc3cc2O)c2ccccc21,inactive,
Cc1ccc(N2C(=O)NC(=O)/C(=C\c3ccc([N+](=O)[O-])o3)C2=O)cc1,,7.36 µM
O=c1[nH]c(=O)n(Cc2ccccc2)c(O)c1/C=C1\C=Nc2ccccc21,inactive,
CC1(OC(=O)c2ccc(Cl)nc2)C(=O)C=C2C=C(c3ccc(C#N)cc3)OC=C2C1=O (centres undefined),inactive,
CCCCN(C(=O)C1=COCCO1)c1c(N)n(Cc2ccccc2)c(=O)[nH]c1=O,inactive,
COc1ccc(C2NC(=O)N(CCCC(=O)O)C(C)=C2C(=O)OCc2ccccc2)cc1 (centres undefined),inactive,
CC(=O)Nc1ccc2cc3ccc(NC(C)=O)cc3nc2c1,,6.38 µM
CC(=O)c1cc(NC(=O)c2ccc(C)cc2)c(=O)oc1C,inactive,
CCNC(=S)N/N=C/c1sc(N2CCCCC2)nc1-c1cccs1,,4.68 µM
CCOc1ccc(N=Nc2c(=O)[nH]n3c(=O)cc(C)[nH]c23)cc1,,> 10 µM (inactive)
Cc1cccc(-n2c(N)c(-c3nc4ccccc4n3C)c3nc4ccccc4nc32)c1,inactive,

Structure (SMILES),"activity change, negative = inhibition",AC50
CC(=O)c1cc(NC(=O)c2ccc([N+](=O)[O-])cc2)c(=O)oc1C,inactive,
CC(=Nc1ccc(C)cc1)c1sc2ccccc2c1O,inactive,
CCOC(=O)C1CCN(c2nc3ccccc3nc2C(C#N)C(=O)OC(C)C)CC1 (centres undefined),inactive,
Cc1nc2cc(C(=O)O)ccc2n1-c1ccc(F)cc1F,inactive,
COc1ccc(/C=C2\C(=O)NC(=S)N2C(=O)c2ccc(C)cc2)cc1,inactive,
COc1ccc(CN2C(=O)NC(=O)/C(=C\c3ccco3)C2=O)cc1,inactive,
O=S1(=O)c2ccccc2N=NN1Cc1ccc(Cl)c(Cl)c1,inactive,
CC(C)OC(=O)c1c2c(n3ccccc13)C(=O)c1ccccc1C2=O,inactive,
CN1CCc2c(sc(NC(=O)C3CCCN3S(=O)(=O)c3ccc(Cl)s3)c2C(N)=O)C1 (centres undefined),inactive,
Cc1nn(C)cc1C(=O)NNC(=S)Nc1ccccc1,inactive,
Cc1nc2c3ccccc3nc(NNC(=O)CCC(=O)NC(C)C)n2n1,inactive,
Cc1cc(C)c2ccc(=S)[nH]c2n1,inactive,
COc1ccc2nc3ccccc3nc2c1N,inactive,
CCn1c(C)c(C(C)=O)c(N2CCN(c3ccccc3)CC2)nc1=S,inactive,
COc1ccc2ccccc2c1CNCc1ccccn1,inactive,
N[C@@H](Cc1ccccc1)C(=O)N1CCC(C(=O)NCC(=O)Nc2ccc(F)cc2)CC1,inactive,
Cc1ccc(-c2ccc(/C=N/N=C3/NC(=O)C(CC(=O)O)S3)o2)c([N+](=O)[O-])c1 (centres undefined),inactive,
NC1=C([N+](=O)[O-])C(c2ccc3c(c2)OCO3)C2=C(CCCC2=O)O1 (centres undefined),inactive,
CCCOc1ccc([C@@H]2C3CN(C(=O)OCC)CC=C3C(C#N)=C(N)C2(C#N)C#N)cc1OC (some centres undefined),inactive,
CC1=NOC(=O)/C1=C/c1ccc2c(c1)OCO2,inactive,
C=CCOc1ccc(C(c2c(C(=O)O)[nH]c3ccccc23)c2c(C(=O)O)[nH]c3ccccc23)cc1,inactive,
CC1=NN(C(N)=S)C(=O)C1N=Nc1cccc(Cl)c1C (centres undefined),inactive,
